{"source": "patent US20220145260A1", "about": "“METHOD FOR CULTURING HEPATIC EPITHELIOID TISSUE HAVING A STRUCTURE OF CONNECTIONS BETWEEN HEPATOCYTES AND BILE DUCT EPITHELIAL CELL” (SAPPORO MEDICAL UNIVERSITY, priority 2019, published 2022)", "key": {"[1]": {"system": "barrier functions of the epithelial cells in the organoid", "experiment": "Release of CLF into the medium by inhibition of cell-cell adhesion (tight junction barrier) with MβCD", "type": "cell-based, mice"}, "[2]": {"system": "hepatic epithelioid tissue (small hepatocytes and bile duct epithelial cells)", "experiment": "Fluorescein diacetate uptake and flow into bile duct in hepatic epithelioid tissue", "type": "cell-based, mice", "settings": "hepatic epithelioid tissue 2 weeks after overlaying Matrigel; fluorescence microscopy", "method": "After 4 mg/ml of a type I collagen solution was prepared, it was added to wells of a pre-cooled culture plate (manufactured by Greiner Bio-One Co., Ltd.), followed by allowing to stand at 37° C. for 30 to 60 minutes to be gelatinized. Bile duct epithelial cells suspended in a DMEM/F12 medium (manufactured by Sigma Aldrich Co. LLC) containing 10% serum (fetal bovine serum), 1×insulin-transferrin-selenium (ITS), 0.1 μM dexamethasone, 5 ng/ml epidermal growth factor (EGF), and 5 ng/ml hepatocyte growth factor (HGF) were inoculated in a 24-well plate at 5×10^4 cells/well. […] The density in the cultured region of the bile duct epithelial cells in the cultured region was measured with image analysis software (manufactured by Olympus Corporation) by using photographs taken under a microscope. […]\nFluorescein diacetate (FDA) (manufactured by Tokyo Chemical Industry Co., Ltd.) was taken up by the above-mentioned hepatic epithelioid tissue 2 weeks after overlaying Matrigel, and observation was performed with a phase-contrast microscope and a fluorescence microscope. […] FDA is taken by hepatocytes and hydrolyzed to become fluorescein that emits a fluorescence, and then is excreted into the bile canaliculus."}, "[3]": {"system": "hepatic epithelioid tissue (small hepatocytes and bile duct epithelial cells)", "experiment": "Transportation of bile acid analog CLF from hepatocytes to the bile duct", "type": "cell-based, mice", "settings": "after 6 hours; 1 month after overlaying gel"}, "[4]": {"system": "coculture of human CLiP and murine bile duct epithelial cells", "experiment": "CLF transport in coculture of human reprogramming hepatocytes (hCLiP) and murine BEC", "type": "cell-based", "settings": "one week after overlaying collagen gel containing 40% Matrigel", "method": "In order to produce an organoid reflecting the metabolic functions of humans, coculture of human reprogramming hepatocytes and murine bile duct epithelial cells was performed. Specifically, murine bile duct epithelial cells were cultured on a collagen gel (the amount of collagen contained in the collagen gel: 4 mg/ml) for 5 days, and then CLIP was inoculated. Two days later, human recombinant oncostatin M (hOSM) (manufactured by R&D Systems Inc.) was added, and then 1 day later, a collagen gel containing 40% EHSgel (Matrigel) was overlaid to perform coculture.\n(A) It can be seen that the contact surface between murine BEC (the range indicated in red) and human CLIP has been formed during the early stage of coculture (see FIG. 10A). (B) One week after overlaying a collagen gel containing EHSgel (Matrigel), CLF was added."}, "[5]": {"system": "hepatic epithelioid tissue (small hepatocytes and bile duct epithelial cells)", "experiment": "Uptake of bilirubin by the hepatic epithelioid tissue reconstructed ex vivo", "type": "cell-based, mice", "settings": "10 μg/ml bilirubin, 3 to 5 days culture; tissue 2 weeks after overlaying Matrigel; Fouchet's reagent staining"}}, "data": [{"compound": "Methyl beta cyclodextrin [MβCD]", "values": [{"measurement": "concentration dependence of CLF release into the medium", "setting": "[1]; 25 mM or 75 mM MβCD", "value": "release depends on the concentration of MβCD"}, {"measurement": "CLF fluorescence leaked into the medium after MβCD addition", "setting": "[1]; 25 mM or 75 mM MβCD vs no addition, cells 1 month after addition of EHS-gel", "value": "fluorescence was detected in the medium"}]}, {"compound": "CC(=O)Oc1ccc2c(c1)Oc1cc(OC(C)=O)ccc1C21OC(=O)c2ccccc21", "note": "[Fluorescein diacetate]", "values": [{"measurement": "flow of fluorescein (from FDA hydrolysed in hepatocytes) into the bile duct", "setting": "[2]", "value": "fluorescein has flowed into the bile duct"}]}, {"compound": "cholyl lysine fluorescein [CLF]", "values": [{"measurement": "transport to the bile duct", "setting": "[3]", "value": "transported to the bile duct"}, {"measurement": "transport of CLF taken up by human CLiP to murine bile duct tissue", "setting": "[4]", "value": "transported to a murine bile duct tissue"}]}, {"compound": "C=CC1=C(C)/C(=C/c2[nH]c(Cc3[nH]c(/C=C4\\NC(=O)C(C)=C4C=C)c(C)c3CCC(=O)O)c(CCC(=O)O)c2C)NC1=O", "note": "[bilirubin]", "values": [{"measurement": "flow of bilirubin taken up by hepatocytes into bile duct structure", "setting": "[5]", "value": "flows into a bile duct structure formed by bile duct epithelial cells"}]}]}
